{"source": "patent US4956355A", "about": "“Agents for the arrest and therapy of retroviral infections” (Colthurst Limited, priority 1987, dated 1990)", "key": {"[1]": {"details": "murine model of SLE; cited from earlier work"}, "complement activation": {"test_system": "complement activation", "details": "cited from earlier work"}, "HIV in human macrophages": {"test_system": "HIV in human macrophages", "assay": "Inhibition of cytoplasmic HIV p24 antigen in HIV-infected macrophages", "type": "cell-based", "details": "FIG. 4", "procedure": "(§1) 1. […] All three viral strains were grown in the Tissue Culture Laboratory of the AIDS Activity Division of San Francisco General Hospital where titers of […] infectious units per ml were routinely achieved.\n(§2) 2. Source of cells: The VB cell line used in Example 1 is a T lymphoma cell line that is highly susceptible to infection with HIV, and expresses high levels of cell surface CD4 molecules. This cell line forms syncytia within two days after infection with all strains of HIV tested to date. […] This is used to quantitate infection in the absence of syncytial formation, infection being quantitated by immunofluorescence assays. The HXB/H9 cell line (Example 6) is an H9 cell population that chronically produces the HTLV-IIIB strain of HIV and is utilised in experiments testing antiviral effects on chronically infected cell lines. Human macrophages were prepared from peripheral blood mononuclear cells either obtained from the blood bank as a buffy coat, or as a leukophoresis preparation. Crowe et al. supra have devised an assay system that allows quantitation of HIV infection, and inhibition of infection using immunocytofluorographic analysis. In order to quantitate HIV infection in macrophages, they grow macrophages in Teflon (Trade Mark) culture vessels which maintain macrophages in suspension in vitro culture for up to six months. Cell surface and cytoplasmic immunofluorescence staining is then performed to quantitate antigens in macrophages by flow cytometry.\n3. Flow cytometry: An Ortho Cytofluorgraf II-S (Trade Mark) that has a biohazard containment flow cell was used for analysis of HIV infected samples. HIV p24 antigens were detected utilizing a mouse monoclonal anti-p24 (du Pont), and mouse antibodies were identified utilizing an FITC conjugated goat anti-mouse IgG. […]\nThe cells from the experiment described in Example 3 were analysed, and the cytoplasm was analysed for the presence of HIV p24 to directly test whether HIV p24 antigen production was inhibited within those infected cells. […]"}, "NADH oxidase": {"test_system": "NADH oxidase", "details": "cited from earlier work"}, "[2]": {"test_system": "HIV in chronically infected human macrophages", "assay": "Antiviral testing of chronically HIV infected macrophages", "type": "cell-based", "description": "as §2\n3. Flow cytometry: An Ortho Cytofluorgraf II-S (Trade Mark) that has a biohazard containment flow cell was used for analysis of HIV infected samples. HIV p24 antigens were detected utilizing a mouse monoclonal anti-p24 (du Pont), and mouse antibodies were identified utilizing an FITC conjugated goat anti-mouse IgG.\n6. Analysis of chronically infected cells: To determine whether compounds A and B are effective at inhibiting HIV expression in macrophages and chronically infected T cells, the following experiments were performed. The chronically infected T cell line, HXB/H9 was exposed to various concentrations of drug for four days in vitro. At four days, the HXB cells were assayed for the presence of p24 intracytoplasmically, and supernatants were assayed for the presence of infectious virus as described above.\nBecause macrophages can be infected and produce HIV for very long periods of time without substantial loss of viability, chronically infected cells were tested, specifically a population that was between 30 and 50% HIV antigen positive, for inhibition of cytoplasmic HIV p24 antigen production. FIG. 5 indicates the results of three separate experiments carried out."}, "[3]": {"assay": "Safety of dehydroepiandrosterone in subjects", "type": "in vivo, human", "procedure": "Twelve patients all of whom were sero-positive for HIV and had been diagnosed as suffering from AIDS were treated with DHEA for up to six months. The DHEA was administered in the form of hard gelatin capsules containing 100 mg of DHEA and at a rate of 100 mg to 600 mg per day. The vast majority being on 500 mg per day in divided doses. The patients were all homosexual or bisexual males with an average age of 34.5 years and an average weight of 69.6 kg."}, "normal human macrophages": {"test_system": "normal human macrophages", "assay": "Nonspecific toxicity to normal human macrophages", "type": "cell-based", "details": "10^-4 to 10^-8 molar", "procedure": "7. Analysis of nonspecific toxicity to the target cells with Compounds A and B. The VB, H9 and HXB cell lines were exposed to different concentrations of Compounds A and B as were normal human macrophages for the length of time the drug was in contact with each cell line as described in the above assays. Cell numbers were counted, and live versus dead were determined by Trypan blue exclusion assays. These tests were required to determine a therapeutic index between nonspecific toxic effects on the described cells, compared with potential effective antiviral effects in vitro (Example 6)."}, "[4]": {"test_system": "glucose-6-phosphate dehydrogenase", "details": "cited from earlier work"}, "[5]": {"test_system": "permeability of membranes", "details": "cited from earlier work"}, "[6]": {"test_system": "peripheral blood lymphocytes", "assay": "Nonspecific toxicity to peripheral blood lymphocytes", "type": "cell-based, human"}, "[7]": {"test_system": "HIV in activated peripheral blood lymphocytes", "assay": "Inhibition of HIV mediated cytopathic effects / p24 antigen production in activated peripheral blood lymphocytes", "type": "cell-based", "details": "for p24 antigen production: activated PBL, about 7 days after infection, FIG. 2", "procedure": "as §1\n4. HIV soluble p24 antigen detection: Soluble p24 antigens were measured with the Abbott HIV antigen detection system.\n(b) Although the VB T lymphoma cell line behaves in a similar manner to peripheral blood CD4 positive T lymphocytes in regard to HIV induced cytopathic effects, the above described experiments were performed on phytohemagglutinin (PHA) activated lymphocytes to determine whether lymphocytes are more or less sensitive to Compounds A and B than is the VB cell line. In this assay system, at the time that multinucleated giant cells appeared within infected lymphocyte cultures, the supernatants were analyzed for the presence of HIV p24 antigens and were titered on indicator VB lymphoma cells to determine the titer of infectious virus present at each point.\nTo test whether the effects of compounds A and B on acute VB T lymphoma infection would be mimicked by activated peripheral blood lymphocytes (PBC), HIV at a multiplicity of infection of one was added to lymphocytes that had been activated for 48 hours with 2 μg per ml of PHA. After the initial infection for one hour, the activated lymphocytes were washed and resuspended for the one week of culture. Multinucleated giant cells began to form approximately 7 days after the initial infection, at which time the culture supernatants were harvested and tested for the presence of HIV p24 antigens. The accumulation of HIV p24 antigens in the supernatant is representative of production of HIV from infected cells."}}, "note": "Where two headings read alike, the source gives them in different places."}
{"smiles": "C[C@]12CC[C@H](O)CC1=CC[C@@H]1[C@@H]2CC[C@]2(C)C(=O)CC[C@@H]12", "note": "[A, dehydroepiandrosterone]", "values": [{"measurement": "autoantibody formation", "setting": "[1]", "result": "prevents autoantibody formation"}, {"measurement": "complement activation", "setting": "complement activation", "result": "inhibits complement activation"}, {"measurement": "HIV p24 cytoplasmic antigen production", "setting": "HIV in human macrophages; 10^-4 molar, three donors", "result": "substantially inhibited"}, {"measurement": "inhibiting HIV p24 antigen production within infected macrophages", "setting": "HIV in human macrophages; dilutions even at 10^-6 molar", "result": "active"}, {"measurement": "effect on NADH oxidase", "setting": "NADH oxidase", "result": "inhibitory effect"}, {"measurement": "inhibition compared with inhibition of acute infection of macrophages", "setting": "[2]; 10^-4 and 10^-5 molar, FIG. 5 vs FIG. 4", "result": "somewhat less than the inhibition of acute infection of macrophages"}, {"measurement": "inhibition of cytoplasmic HIV p24 antigen production in chronically infected macrophages", "setting": "[2]; both 10^-4 and 10^-5 molar, three experiments, FIG. 5", "result": "some inhibition"}, {"measurement": "toxicity in treatment of patients infected with HIV", "setting": "[3]; general statement", "result": "virtual absence of toxicity"}, {"measurement": "adverse physical, biochemical or hematological effects", "setting": "[3]; twelve subjects, daily doses of up to 600 mg for up to six months", "result": "complete lack of adverse physical, biochemical or hematological effects"}, {"measurement": "toxicity in normal macrophages", "setting": "normal human macrophages", "result": "not appreciable toxicity"}, {"measurement": "effect on glucose-6-phosphate dehydrogenase", "setting": "[4]", "result": "inhibits glucose-6-phosphate dehydrogenase"}, {"measurement": "effect on glucose-6-phosphate dehydrogenase", "setting": "[4]; listed as DHEA", "result": "inhibitory effect"}, {"measurement": "effect on permeability of membranes", "setting": "[5]", "result": "inhibitory effect"}, {"measurement": "toxicity with the PBL cultures", "setting": "[6]; 10^-4 and 10^-5 molar", "result": "No appreciable toxicity"}, {"measurement": "toxicity to peripheral blood lymphocytes", "setting": "[6]; 10^-4 to 10^-8 molar", "result": "nor was there appreciable toxicity"}, {"measurement": "p24 antigen production", "setting": "[7]; 10^-4 molar", "result": "moderately inhibited"}, {"measurement": "p24 antigen production", "setting": "[7]; 10^-5 molar", "result": "slightly less inhibited"}, {"measurement": "antiviral effects in comparison with AZT, lymphocytes", "setting": "[7]; acute infection", "result": "inferior"}, {"measurement": "antiviral effect in acute infection studies of lymphocytes", "setting": "[7]; acute infection, conclusions", "result": "mild antiviral effect"}]}
